Molecular target: FGFR3 enzyme (Homo sapiens (Human), UniProt P22607)
Assay: FGFR Enzymatic Assay (peptide phosphorylation, FRET), FGFR3
Type: biochemical
Conditions: IC50 ratio showing FGFR3 selectivity; pre-incubated for 4 hours
Description: The inhibitor potency of the exemplified compounds was measured in an enzyme assay that measures peptide phosphorylation using FRET measurements to detect product formation. Inhibitors were serially diluted in DMSO and a volume of 0.5 μL was transferred to the wells of a 384-well plate.
GraphPad prism3 was used to analyze the data.

Sequence of FGFR3 enzyme (P22607 23-806): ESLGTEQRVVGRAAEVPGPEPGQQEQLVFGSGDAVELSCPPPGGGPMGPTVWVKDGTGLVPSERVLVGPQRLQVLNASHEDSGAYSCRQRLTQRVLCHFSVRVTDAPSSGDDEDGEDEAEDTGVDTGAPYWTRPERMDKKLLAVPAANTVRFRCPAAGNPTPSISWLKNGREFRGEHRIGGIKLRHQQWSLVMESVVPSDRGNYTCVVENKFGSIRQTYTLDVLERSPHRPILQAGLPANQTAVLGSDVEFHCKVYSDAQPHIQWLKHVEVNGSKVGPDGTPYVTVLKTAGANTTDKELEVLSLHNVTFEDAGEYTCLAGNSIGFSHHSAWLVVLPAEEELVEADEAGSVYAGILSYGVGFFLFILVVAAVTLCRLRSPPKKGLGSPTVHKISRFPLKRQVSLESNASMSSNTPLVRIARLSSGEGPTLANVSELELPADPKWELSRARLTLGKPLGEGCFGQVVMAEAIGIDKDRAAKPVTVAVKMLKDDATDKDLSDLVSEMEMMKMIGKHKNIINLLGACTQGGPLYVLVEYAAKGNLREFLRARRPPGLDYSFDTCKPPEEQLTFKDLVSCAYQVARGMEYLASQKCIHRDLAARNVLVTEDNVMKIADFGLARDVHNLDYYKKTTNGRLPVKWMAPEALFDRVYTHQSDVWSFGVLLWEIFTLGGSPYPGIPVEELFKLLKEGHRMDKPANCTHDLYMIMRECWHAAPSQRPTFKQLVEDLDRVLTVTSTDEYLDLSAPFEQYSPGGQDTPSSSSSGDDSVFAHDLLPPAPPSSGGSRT

Question: Which results are given for `COc1cc(OC)c(F)c(N2Cc3cnc(-c4cn(C)nc4C)cc3N(c3ccc4ncsc4c3)C2=O)c1F` [Example 41, 1-(1,3-benzothiazol-6-yl)-3-(2,6-difluoro-3,5-dimethoxyphenyl)-7-(1,3-dimethyl-1H-pyrazol-4-yl)-3,4-dihydropyrido[4,3-d]pyrimidin-2(1H)-one]?
Answer: FGFR1/FGFR3: >1; FGFR4/FGFR3: >5

Question: Which FGFR1/FGFR3 does the source give for `CNC(=O)c1ccc(-c2cc3c(cn2)CN(c2c(F)c(OC)cc(OC)c2F)C(=O)C32CC2)cc1` [Example 19, 4-(2′-(2,6-difluoro-3,5-dimethoxyphenyl)-3′-oxo-2′,3′-dihydro-1′H-spiro[cyclopropane-1,4′-[2,7]naphthyridine]-6′-yl)-N-methylbenzamide] here?
Answer: Its FGFR1/FGFR3 is over 5.

Question: How did the FGFR1/FGFR3 turn out when `COc1cc(OC)c(F)c(N2Cc3cnc(-c4cn(C)nc4C)cc3N(c3ccc(F)c(F)c3)C2=O)c1F` [Example 102, 3-(2,6-difluoro-3,5-dimethoxyphenyl)-1-(3,4-difluorophenyl)-7-(1,3-dimethyl-1H-pyrazol-4-yl)-3,4-dihydropyrido[4,3-d]pyrimidin-2(1H)-one] was run?
Answer: Its FGFR1/FGFR3 is over 3.

Question: And the FGFR4/FGFR3?
Answer: The FGFR4/FGFR3 was over 10.

Question: How did the FGFR1/FGFR3 turn out when `COc1cc(OC)c(F)c(N2Cc3cnc(-c4cn(C)nc4C)cc3N(c3cnccn3)C2=O)c1F` [Example 70, 3-(2,6-difluoro-3,5-dimethoxyphenyl)-7-(1,3-dimethyl-1H-pyrazol-4-yl)-1-(pyrazin-2-yl)-3,4-dihydropyrido[4,3-d]pyrimidin-2(1H)-one] was run?
Answer: The FGFR1/FGFR3 was over 5.

Question: What about the FGFR4/FGFR3 of the same compound?
Answer: Its FGFR4/FGFR3 is over 5.

Question: With `COc1cc(OC)c(F)c(N2Cc3cnc(-c4cnn(C5(C#N)CCC5)c4C)cc3C3(CC3)C2=O)c1F` [Example 149, 1-(4-(2′-(2,6-difluoro-3,5-dimethoxyphenyl)-3′-oxo-2′,3′-dihydro-1′H-spiro[cyclopropane-1,4′-[2,7]naphthyridine]-6′-yl)-5-methyl-1H-pyrazol-1-yl)cyclobutanecarbonitrile] as the compound, how does the FGFR1/FGFR3 read?
Answer: Its FGFR1/FGFR3 is over 5.

Question: What about the FGFR4/FGFR3 of the same compound?
Answer: The FGFR4/FGFR3 was over 3.

Question: For `COc1cc(OC)c(F)c(N2Cc3cnc(-c4cn(C)nc4C)cc3N(c3cccnc3)C2=O)c1F` [Example 86, 3-(2,6-difluoro-3,5-dimethoxyphenyl)-7-(1,3-dimethyl-1H-pyrazol-4-yl)-1-(pyridin-3-yl)-3,4-dihydropyrido[4,3-d]pyrimidin-2(1H)-one], which FGFR1/FGFR3 is on record?
Answer: The FGFR1/FGFR3 was over 5.

Question: What about the FGFR4/FGFR3 of the same compound?
Answer: The FGFR4/FGFR3 was over 10.

Question: Which FGFR1/FGFR3 does the source give for `COc1cc(OC)c(F)c(N2Cc3cnc(-c4cn(CCN5CCOCC5)nc4C)cc3C3(CC3)C2=O)c1F` [Example 52, 2′-(2,6-difluoro-3,5-dimethoxyphenyl)-6′-(3-methyl-1-(2-morpholinoethyl)-1H-pyrazol-4-yl)-1′H-spiro[cyclopropane-1,4′-[2,7]naphthyridin]-3′(2′H)-one] here?
Answer: The FGFR1/FGFR3 was over 10.

Question: What about the FGFR4/FGFR3 of the same compound?
Answer: Its FGFR4/FGFR3 is over 1.

Question: Which FGFR1/FGFR3 does the source give for `COc1cc(OC)c(F)c(N2Cc3cnc(-c4cn(C)nc4C)cc3N(c3ccncn3)C2=O)c1F` [Example 45, 3-(2,6-difluoro-3,5-dimethoxyphenyl)-7-(1,3-dimethyl-1H-pyrazol-4-yl)-1-pyrimidin-4-yl-3,4-dihydropyrido[4,3-d]pyrimidin-2(1H)-one] here?
Answer: Its FGFR1/FGFR3 is over 10.

Question: What about the FGFR4/FGFR3 of the same compound?
Answer: Its FGFR4/FGFR3 is over 10.

Question: What does the source list for `COc1cc(OC)c(F)c(N2Cc3cnc(-c4cn(C)nc4C)cc3N(c3ccc4[nH]ncc4c3)C2=O)c1F` [Example 134, 3-(2,6-difluoro-3,5-dimethoxyphenyl)-7-(1,3-dimethyl-1H-pyrazol-4-yl)-1-(1H-indazol-5-yl)-3,4-dihydropyrido[4,3-d]pyrimidin-2(1H)-one]?
Answer: FGFR1/FGFR3: >3; FGFR4/FGFR3: >5

Question: `CNC(=O)c1ccc(-c2cc3c(cn2)CN(c2c(F)c(OC)cc(OC)c2F)C(=O)C32CC2)cn1` [Example 18, 5-(2′-(2,6-difluoro-3,5-dimethoxyphenyl)-3′-oxo-2′,3′-dihydro-1′H-spiro[cyclopropane-1,4′-[2,7]naphthyridine]-6′-yl)-N-methylpicolinamide] was tested. Which FGFR1/FGFR3 did it give?
Answer: The FGFR1/FGFR3 was over 5.

Question: With `COc1cc(OC)c(F)c(N2Cc3cnc(-c4cn(C)nc4C)cc3N(Cc3cc(C)on3)C2=O)c1F` [Example 31, 3-(2,6-difluoro-3,5-dimethoxyphenyl)-7-(1,3-dimethyl-1H-pyrazol-4-yl)-1-((5-methylisoxazol-3-yl)methyl)-3,4-dihydropyrido[4,3-d]pyrimidin-2(1H)-one] as the compound, how does the FGFR1/FGFR3 read?
Answer: The FGFR1/FGFR3 was over 5.

Question: And the FGFR4/FGFR3?
Answer: The FGFR4/FGFR3 was over 10.

Question: Which FGFR1/FGFR3 does the source give for `COc1cc(OC)c(F)c(N2Cc3cnc(-c4cn(C)nc4C)cc3N(Cc3cnn(C)c3C)C2=O)c1F` [Example 48, 3-(2,6-difluoro-3,5-dimethoxyphenyl)-7-(1,3-dimethyl-1H-pyrazol-4-yl)-1-[(1,5-dimethyl-1H-pyrazol-4-yl)methyl]-3,4-dihydropyrido[4,3-d]pyrimidin-2(1H)-one] here?
Answer: Its FGFR1/FGFR3 is over 10.

Question: What about the FGFR4/FGFR3 of the same compound?
Answer: Its FGFR4/FGFR3 is over 10.

Question: With `CCn1cc(N2C(=O)N(c3c(F)c(OC)cc(OC)c3F)Cc3cnc(-c4cn(C)nc4C)cc32)cn1` [Example 131, 3-(2,6-difluoro-3,5-dimethoxyphenyl)-7-(1,3-dimethyl-1H-pyrazol-4-yl)-1-(1-ethyl-1H-pyrazol-4-yl)-3,4-dihydropyrido[4,3-d]pyrimidin-2(1H)-one] as the compound, how does the FGFR1/FGFR3 read?
Answer: The FGFR1/FGFR3 was over 3.

Question: What about the FGFR4/FGFR3 of the same compound?
Answer: The FGFR4/FGFR3 was over 10.

Question: Which FGFR1/FGFR3 does the source give for `COc1cc(OC)c(F)c(N2Cc3cnc(-c4cn(C)nc4C)cc3N(Cc3ccc4c(c3)OCCO4)C2=O)c1F` [Example 38, 3-(2,6-difluoro-3,5-dimethoxyphenyl)-1-((2,3-dihydrobenzo[b][1,4]dioxin-6-yl)methyl)-7-(1,3-dimethyl-1H-pyrazol-4-yl)-3,4-dihydropyrido[4,3-d]pyrimidin-2(1H)-one] here?
Answer: Its FGFR1/FGFR3 is over 5.

Question: What about the FGFR4/FGFR3 of the same compound?
Answer: The FGFR4/FGFR3 was over 5.

Question: For `COc1cc(OC)c(F)c(N2Cc3cnc(-c4cn(C)nc4C)cc3N(Cc3ccc(F)c(F)c3)C2=O)c1F` [Example 73, 3-(2,6-difluoro-3,5-dimethoxyphenyl)-1-(3,4-difluorobenzyl)-7-(1,3-dimethyl-1H-pyrazol-4-yl)-3,4-dihydropyrido[4,3-d]pyrimidin-2(1H)-one], which FGFR1/FGFR3 is on record?
Answer: The FGFR1/FGFR3 was over 5.

Question: And the FGFR4/FGFR3?
Answer: Its FGFR4/FGFR3 is over 10.

Question: `COc1cc(OC)c(F)c(N2Cc3cnc(-c4cn(C)nc4C)cc3N(C3(C#N)CC3)C2=O)c1F` [Example 91, 1-(3-(2,6-difluoro-3,5-dimethoxyphenyl)-7-(1,3-dimethyl-1H-pyrazol-4-yl)-2-oxo-3,4-dihydropyrido[4,3-d]pyrimidin-1(2H)-yl)cyclopropanecarbonitrile] was tested. Which FGFR1/FGFR3 did it give?
Answer: The FGFR1/FGFR3 was over 5.

Question: And the FGFR4/FGFR3?
Answer: Its FGFR4/FGFR3 is over 5.

Question: How did the FGFR1/FGFR3 turn out when `COc1cc(OC)c(F)c(N2Cc3cnc(-c4cn(C)nc4C)cc3N(Cc3cnn(CC#N)c3)C2=O)c1F` [Example 125, 2-(4-((3-(2,6-difluoro-3,5-dimethoxyphenyl)-7-(1,3-dimethyl-1H-pyrazol-4-yl)-2-oxo-3,4-dihydropyrido[4,3-d]pyrimidin-1(2H)-yl)methyl)-1H-pyrazol-1-yl)acetonitrile] was run?
Answer: The FGFR1/FGFR3 was over 5.

Question: What about the FGFR4/FGFR3 of the same compound?
Answer: Its FGFR4/FGFR3 is over 5.

Question: For `COc1cc(OC)c(F)c(N2Cc3cnc(-c4cn(C)nc4C)cc3N(Cc3cnn(C4CC4)c3)C2=O)c1F` [Example 124, 1-((1-cyclopropyl-1H-pyrazol-4-yl)methyl)-3-(2,6-difluoro-3,5-dimethoxyphenyl)-7-(1,3-dimethyl-1H-pyrazol-4-yl)-3,4-dihydropyrido[4,3-d]pyrimidin-2(1H)-one], which FGFR1/FGFR3 is on record?
Answer: The FGFR1/FGFR3 was over 10.

Question: And the FGFR4/FGFR3?
Answer: Its FGFR4/FGFR3 is over 10.

Question: What does the source list for `COc1cc(OC)c(F)c(N2Cc3cnc(-c4cn(Cc5cccnc5)nc4C)cc3C3(CC3)C2=O)c1F` [Example 155, 2′-(2,6-difluoro-3,5-dimethoxyphenyl)-6′-(3-methyl-1-(pyridin-3-ylmethyl)-1H-pyrazol-4-yl)-1′H-spiro[cyclopropane-1,4′-[2,7]naphthyridin]-3′(2′H)-one]?
Answer: FGFR1/FGFR3: >5; FGFR4/FGFR3: >1

Question: With `COc1cc(OC)c(F)c(N2Cc3cnc(-c4ccc(C5(C#N)CCC5)nc4)cc3N(c3cnn(C)c3)C2=O)c1F` [Example 188, 1-{5-[3-(2,6-difluoro-3,5-dimethoxyphenyl)-1-(1-methyl-1H-pyrazol-4-yl)-2-oxo-1,2,3,4-tetrahydropyrido[4,3-d]pyrimidin-7-yl]pyridin-2-yl}cyclobutanecarbonitrile] as the compound, how does the FGFR1/FGFR3 read?
Answer: The FGFR1/FGFR3 was over 5.

Question: And the FGFR4/FGFR3?
Answer: The FGFR4/FGFR3 was over 5.

Question: How did the FGFR1/FGFR3 turn out when `CCn1cnc(-c2cc3c(cn2)CN(c2c(F)c(OC)cc(OC)c2F)C(=O)C32CC2)c1` [Example 53, 2′-(2,6-difluoro-3,5-dimethoxyphenyl)-6′-(1-ethyl-1H-imidazol-4-yl)-1′H-spiro[cyclopropane-1,4′-[2,7]naphthyridin]-3′(2′H)-one] was run?
Answer: Its FGFR1/FGFR3 is over 5.

Question: And the FGFR4/FGFR3?
Answer: The FGFR4/FGFR3 was over 5.

Question: Which FGFR1/FGFR3 does the source give for `COc1cc(OC)c(F)c(N2Cc3cnc(-c4cn(C)nc4C)cc3N(Cc3cc(C(C)C)on3)C2=O)c1F` [Example 93, 3-(2,6-difluoro-3,5-dimethoxyphenyl)-7-(1,3-dimethyl-1H-pyrazol-4-yl)-1-((5-isopropylisoxazol-3-yl)methyl)-3,4-dihydropyrido[4,3-d]pyrimidin-2(1H)-one] here?
Answer: The FGFR1/FGFR3 was over 5.

Question: And the FGFR4/FGFR3?
Answer: Its FGFR4/FGFR3 is over 5.

Question: Which FGFR1/FGFR3 does the source give for `COc1cc(OC)c(F)c(N2Cc3cnc(-c4cnn(CC5CN(S(C)(=O)=O)C5)c4)cc3C3(CC3)C2=O)c1F` [Example 166, 2′-(2,6-difluoro-3,5-dimethoxyphenyl)-6′-(1-((1-(methylsulfonyl)azetidin-3-yl)methyl)-1H-pyrazol-4-yl)-1′H-spiro[cyclopropane-1,4′-[2,7]naphthyridin]-3′(2′H)-one] here?
Answer: Its FGFR1/FGFR3 is over 3.

Question: What about the FGFR4/FGFR3 of the same compound?
Answer: Its FGFR4/FGFR3 is over 3.

Question: Which results are given for `COc1cc(OC)c(F)c(N2Cc3cnc(-c4cn(C5CCN(C)C5)nc4C)cc3C3(CC3)C2=O)c1F` (stereo not drawn) [Example 163, 2′-(2,6-difluoro-3,5-dimethoxyphenyl)-6′-(3-methyl-1-(1-methylpyrrolidin-3-yl)-1H-pyrazol-4-yl)-1′H-spiro[cyclopropane-1,4′-[2,7]naphthyridin]-3′(2′H)-one]?
Answer: FGFR1/FGFR3: >3; FGFR4/FGFR3: >3

Question: Which FGFR1/FGFR3 does the source give for `COc1cccc(N2C(=O)N(c3c(F)c(OC)cc(OC)c3F)Cc3cnc(-c4cn(C)nc4C)cc32)c1` [Example 109, 3-(2,6-difluoro-3,5-dimethoxyphenyl)-7-(1,3-dimethyl-1H-pyrazol-4-yl)-1-(3-methoxyphenyl)-3,4-dihydropyrido[4,3-d]pyrimidin-2(1H)-one] here?
Answer: The FGFR1/FGFR3 was over 3.

Question: What about the FGFR4/FGFR3 of the same compound?
Answer: The FGFR4/FGFR3 was over 10.

Source: patent US10251892B2, “Bicyclic heterocycles as FGFR4 inhibitors” (Incyte Corporation, priority 2015, dated 2019)
